Data as given in the NIST ThermoML archive (doi:10.1021/acs.jced.6b00350).
Values joined by “and” are separate entries in the source; they are usually repeats but may differ in a detail not shown here. Equal entries are not always repeated.

Conditions: Liquid, Hot wire method

FC(F)CC(F)(F)F [1,1,1,3,3-pentafluoropropane]
Conditions | thermal conductivity
173.21 K, 150 kPa | 0.1235 W/m/K and 0.1232 W/m/K
173.3 K, 132 kPa | 0.1239 W/m/K
173.3 K, 133 kPa | 0.1234 W/m/K
173.3 K, 148 kPa | 0.1237 W/m/K and 0.1231 W/m/K
173.41 K, 150 kPa | 0.1234 W/m/K
173.51 K, 135 kPa | 0.1234 W/m/K and 0.1231 W/m/K
173.51 K, 148 kPa | 0.1235 W/m/K and 0.1238 W/m/K
173.66 K, 150 kPa | 0.1231 W/m/K
173.75 K, 136 kPa | 0.1237 W/m/K
173.75 K, 137 kPa | 0.1236 W/m/K
173.75 K, 148 kPa | 0.1236 W/m/K
173.91 K, 150 kPa | 0.1233 W/m/K and 0.1231 W/m/K
174.01 K, 138 kPa | 0.1235 W/m/K
174.01 K, 140 kPa | 0.1235 W/m/K
174.01 K, 148 kPa | 0.1235 W/m/K
174.01 K, 149 kPa | 0.1235 W/m/K
174.21 K, 150 kPa | 0.1234 W/m/K
174.29 K, 140 kPa | 0.1233 W/m/K
174.29 K, 141 kPa | 0.1231 W/m/K
174.3 K, 149 kPa | 0.1239 W/m/K and 0.1236 W/m/K
181.78 K, 159 kPa | 0.1224 W/m/K and 0.1223 W/m/K
182.06 K, 158 kPa | 0.1227 W/m/K and 0.1222 W/m/K
182.37 K, 158 kPa | 0.1222 W/m/K and 0.1225 W/m/K
182.5 K, 266 kPa | 0.1225 W/m/K
182.5 K, 269 kPa | 0.1226 W/m/K
182.51 K, 5857 kPa | 0.1236 W/m/K
182.51 K, 70521 kPa | 0.1336 W/m/K
182.52 K, 5874 kPa | 0.1237 W/m/K
182.52 K, 12298 kPa | 0.1248 W/m/K
182.52 K, 12334 kPa | 0.1252 W/m/K
182.53 K, 18829 kPa | 0.126 W/m/K
182.53 K, 18849 kPa | 0.126 W/m/K
182.53 K, 32455 kPa | 0.1283 W/m/K
182.54 K, 25387 kPa | 0.1271 W/m/K
182.54 K, 25434 kPa | 0.1275 W/m/K
182.54 K, 63262 kPa | 0.1331 W/m/K and 0.133 W/m/K
182.55 K, 32519 kPa | 0.128 W/m/K
182.6 K, 54974 kPa | 0.1317 W/m/K
182.6 K, 54979 kPa | 0.1314 W/m/K
182.64 K, 47632 kPa | 0.1303 W/m/K
182.64 K, 47638 kPa | 0.1309 W/m/K
182.68 K, 39974 kPa | 0.1293 W/m/K
182.68 K, 39979 kPa | 0.1294 W/m/K
182.7 K, 158 kPa | 0.1222 W/m/K
182.71 K, 158 kPa | 0.1222 W/m/K
182.81 K, 266 kPa | 0.1225 W/m/K
182.81 K, 278 kPa | 0.1224 W/m/K
182.81 K, 5870 kPa | 0.1236 W/m/K
182.81 K, 5874 kPa | 0.1234 W/m/K
182.81 K, 70507 kPa | 0.134 W/m/K
182.81 K, 70514 kPa | 0.134 W/m/K
182.82 K, 12333 kPa | 0.1247 W/m/K
182.83 K, 18827 kPa | 0.1259 W/m/K
182.83 K, 18835 kPa | 0.1259 W/m/K
182.83 K, 25436 kPa | 0.1272 W/m/K
182.84 K, 25420 kPa | 0.127 W/m/K
182.84 K, 32528 kPa | 0.1281 W/m/K
182.84 K, 32589 kPa | 0.128 W/m/K
182.85 K, 63255 kPa | 0.1331 W/m/K
182.91 K, 54970 kPa | 0.1314 W/m/K
182.92 K, 54983 kPa | 0.1316 W/m/K
182.95 K, 47626 kPa | 0.1304 W/m/K
182.95 K, 47631 kPa | 0.1305 W/m/K
182.99 K, 39966 kPa | 0.129 W/m/K
182.99 K, 39976 kPa | 0.1291 W/m/K
183.06 K, 158 kPa | 0.1223 W/m/K and 0.1222 W/m/K
183.13 K, 269 kPa | 0.1224 W/m/K
183.14 K, 277 kPa | 0.1224 W/m/K
183.14 K, 5876 kPa | 0.1234 W/m/K
183.14 K, 5877 kPa | 0.1234 W/m/K
183.14 K, 70492 kPa | 0.1338 W/m/K
183.14 K, 70493 kPa | 0.134 W/m/K
183.15 K, 12341 kPa | 0.1246 W/m/K
183.15 K, 18865 kPa | 0.1257 W/m/K
183.15 K, 25402 kPa | 0.1266 W/m/K
183.16 K, 12323 kPa | 0.1246 W/m/K
183.16 K, 18832 kPa | 0.1258 W/m/K
183.16 K, 25441 kPa | 0.1268 W/m/K
183.16 K, 32517 kPa | 0.1281 W/m/K
183.17 K, 32553 kPa | 0.1282 W/m/K
183.18 K, 63248 kPa | 0.1329 W/m/K
183.19 K, 63254 kPa | 0.133 W/m/K
183.25 K, 54977 kPa | 0.1312 W/m/K
183.25 K, 54980 kPa | 0.1317 W/m/K
183.29 K, 47629 kPa | 0.13 W/m/K
183.3 K, 47628 kPa | 0.1305 W/m/K
183.34 K, 39964 kPa | 0.1291 W/m/K
183.34 K, 39965 kPa | 0.1291 W/m/K
183.5 K, 279 kPa | 0.1222 W/m/K
183.5 K, 290 kPa | 0.1225 W/m/K
183.5 K, 5883 kPa | 0.1234 W/m/K
183.5 K, 12421 kPa | 0.1245 W/m/K
183.5 K, 70475 kPa | 0.1338 W/m/K
183.5 K, 70484 kPa | 0.1336 W/m/K
183.51 K, 5882 kPa | 0.1233 W/m/K
183.51 K, 12360 kPa | 0.1246 W/m/K
183.51 K, 18836 kPa | 0.1258 W/m/K
183.51 K, 18859 kPa | 0.1258 W/m/K
183.51 K, 25404 kPa | 0.1269 W/m/K
183.51 K, 25455 kPa | 0.1269 W/m/K
183.51 K, 32519 kPa | 0.1282 W/m/K
183.51 K, 32578 kPa | 0.1281 W/m/K
183.54 K, 63251 kPa | 0.133 W/m/K
183.55 K, 63252 kPa | 0.1329 W/m/K
183.62 K, 54975 kPa | 0.1314 W/m/K
183.66 K, 47626 kPa | 0.1304 W/m/K
183.67 K, 47632 kPa | 0.1303 W/m/K
183.71 K, 39948 kPa | 0.129 W/m/K
183.71 K, 39959 kPa | 0.1291 W/m/K
183.88 K, 5875 kPa | 0.1233 W/m/K
183.88 K, 18828 kPa | 0.1257 W/m/K
183.88 K, 18858 kPa | 0.1257 W/m/K
183.88 K, 25416 kPa | 0.1267 W/m/K
183.88 K, 32497 kPa | 0.1281 W/m/K
183.88 K, 70464 kPa | 0.1338 W/m/K
183.89 K, 5878 kPa | 0.1233 W/m/K
183.89 K, 12374 kPa | 0.1246 W/m/K
183.89 K, 12395 kPa | 0.1244 W/m/K
183.89 K, 25431 kPa | 0.1268 W/m/K
183.89 K, 32541 kPa | 0.1281 W/m/K
183.89 K, 70475 kPa | 0.1341 W/m/K
183.9 K, 282 kPa | 0.1223 W/m/K
183.9 K, 287 kPa | 0.1222 W/m/K
183.93 K, 63243 kPa | 0.1325 W/m/K
183.93 K, 63247 kPa | 0.1328 W/m/K
184.01 K, 54967 kPa | 0.1313 W/m/K
184.01 K, 54970 kPa | 0.1314 W/m/K
184.06 K, 47633 kPa | 0.1303 W/m/K
184.06 K, 47634 kPa | 0.13 W/m/K
184.1 K, 39951 kPa | 0.129 W/m/K
184.1 K, 39957 kPa | 0.129 W/m/K
201.76 K, 4752 kPa | 0.1207 W/m/K
201.76 K, 4760 kPa | 0.1207 W/m/K
201.78 K, 10055 kPa | 0.1218 W/m/K
201.78 K, 10078 kPa | 0.1219 W/m/K
201.81 K, 15810 kPa | 0.1231 W/m/K
201.85 K, 253 kPa | 0.1197 W/m/K
201.86 K, 245 kPa | 0.1197 W/m/K
